The record followed here is patent US20180237441A1, “Chemical Compounds” (GlaxoSmithKline Intellectual Property (No.2) Limited, priority 2015, published 2018).

One test deals with T1, PERK (Homo sapiens, UniProt Q9NZJ5).
T1 sequence (Q9NZJ5 30-1116): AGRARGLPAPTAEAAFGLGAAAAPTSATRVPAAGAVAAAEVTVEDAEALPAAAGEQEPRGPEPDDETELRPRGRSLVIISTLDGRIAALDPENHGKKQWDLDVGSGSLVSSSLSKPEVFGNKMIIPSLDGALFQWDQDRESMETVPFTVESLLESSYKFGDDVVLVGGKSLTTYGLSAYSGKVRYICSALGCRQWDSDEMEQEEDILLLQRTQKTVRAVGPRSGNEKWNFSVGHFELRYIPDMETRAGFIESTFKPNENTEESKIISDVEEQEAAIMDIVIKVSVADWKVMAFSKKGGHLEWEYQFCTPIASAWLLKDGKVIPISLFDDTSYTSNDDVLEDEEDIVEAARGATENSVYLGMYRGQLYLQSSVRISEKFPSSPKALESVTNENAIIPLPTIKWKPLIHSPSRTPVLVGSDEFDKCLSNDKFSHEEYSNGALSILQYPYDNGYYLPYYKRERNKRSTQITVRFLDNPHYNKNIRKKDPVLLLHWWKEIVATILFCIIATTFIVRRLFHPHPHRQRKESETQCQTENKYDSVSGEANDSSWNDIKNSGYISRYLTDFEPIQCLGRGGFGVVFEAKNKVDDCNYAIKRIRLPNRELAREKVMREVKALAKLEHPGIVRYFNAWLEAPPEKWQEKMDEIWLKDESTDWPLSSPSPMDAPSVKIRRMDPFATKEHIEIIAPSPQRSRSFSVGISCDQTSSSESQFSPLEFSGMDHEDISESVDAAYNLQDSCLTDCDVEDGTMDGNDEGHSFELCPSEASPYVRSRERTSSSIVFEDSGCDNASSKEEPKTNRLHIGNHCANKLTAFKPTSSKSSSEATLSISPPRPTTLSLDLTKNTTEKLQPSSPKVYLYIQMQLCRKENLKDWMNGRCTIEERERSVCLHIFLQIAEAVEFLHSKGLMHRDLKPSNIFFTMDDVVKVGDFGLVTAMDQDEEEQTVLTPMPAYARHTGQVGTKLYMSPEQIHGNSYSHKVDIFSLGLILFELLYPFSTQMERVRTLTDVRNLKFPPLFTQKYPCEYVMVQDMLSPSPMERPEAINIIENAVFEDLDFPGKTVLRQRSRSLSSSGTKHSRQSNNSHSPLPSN
Briefly: PERK enzyme assay (HTRF). The format is biochemical. Conditions: 500 μM ATP; at least one experimental run; read-out: PERK Enzyme (500 μM ATP) IC50. In outline: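 GST-PERK (0.75 nM final) pre-incubated 30–60 min with compound (≤1% DMSO) in HEPES pH 7.5/CHAPS/MgCl2/DTT, then 500 μM ATP and 40 nM biotin-eIF2α added for 60 min. EDTA quench; HTRF detection of phospho-eIF2α (Eu anti-rabbit/streptavidin-APC) read after 2 h; IC50 from concentration series.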
Background: In TR-FRET formats the signal depends on donor and acceptor labels being close together.
As for `CN1C(=O)N(c2ccc(-c3cn(C)c4ncnc(N)c34)c(F)c2)CC1c1cc(F)cc(F)c1` (stereo not drawn) [Example 25, 1-(4-(4-amino-7-methyl-7H-pyrrolo[2,3-d]pyrimidin-5-yl)-3-fluorophenyl)-4-(3,5-difluorophenyl)-3-methylimidazolidin-2-one], the IC50 is 74.2 nM.

Still in this test, the particulars now being: PERK Enzyme (500 μM ATP) IC50; at least one experimental run; read-out: PERK Activity.
`CN1C(=O)N(c2ccc(-c3cn(C4CC4)c4ncnc(N)c34)c(F)c2)CC1c1cc(F)c(F)cc1F` (single isomer, unassigned) [Example 160, 1-(4-(4-amino-7-cyclopropyl-7H-pyrrolo[2,3-d]pyrimidin-5-yl)-3-fluorophenyl)-3-methyl-4-(2,4,5-trifluorophenyl)imidazolidin-2-one]: the IC50 is below 100 nM.

As to `CCN1C(=O)N(c2ccc(-c3cn(C)c4ncnc(N)c34)c(F)c2)CC1c1cc(F)ccc1F` (racemic) [Example 1, 1-(4-(4-amino-7-methyl-7H-pyrrolo[2,3-d]pyrimidin-5-yl)-3-fluorophenyl)-4-(2,5-difluorophenyl)-3-ethylimidazolidin-2-one], the IC50 lay in the range of 100 to 1000 nM. Same read-out and setting: in the case of `CN1C(=O)N(c2ccc(-c3cn(C4CC4)c4ncnc(N)c34)c(F)c2)CC1c1ccc(F)c(F)c1` (stereo not drawn) [Example 114, 1-(4-(4-amino-7-cyclopropyl-7H-pyrrolo[2,3-d]pyrimidin-5-yl)-3-fluorophenyl)-4-(3,4-difluorophenyl)-3-methylimidazolidin-2-one] it was below 100 nM; in that of `CCN1C(=O)N(c2ccc(-c3cn(C)c4nc(C)nc(N)c34)c(F)c2)CC1c1cc(F)ccc1F` (single isomer, unassigned) [Example 44, 1-(4-(4-amino-2,7-dimethyl-7H-pyrrolo[2,3-d]pyrimidin-5-yl)-3-fluorophenyl)-4-(2,5-difluorophenyl)-3-ethylimidazolidin-2-one], below 100 nM. As to `CN1C(=O)N(c2ccc(-c3cn(C)c4ncnc(N)c34)c(F)c2)CC1C1CCCCC1` (single isomer, unassigned) [Example 63, 1-(4-(4-amino-7-methyl-7H-pyrrolo[2,3-d]pyrimidin-5-yl)-3-fluorophenyl)-4-cyclohexyl-3-methylimidazolidin-2-one], the IC50 was below 100 nM. In the case of `CN1C(=O)N(c2ccc(-c3cn(C)c4ncnc(N)c34)c(F)c2)CC1c1cc(F)cc(F)c1` (single isomer, unassigned) [Example 101, 1-(4-(4-amino-7-methyl-7H-pyrrolo[2,3-d]pyrimidin-5-yl)-3-fluorophenyl)-4-(3,5-difluorophenyl)-3-methylimidazolidin-2-one], the IC50 lay within 100 to 1000 nM. In the case of `CCN1C(=O)N(c2ccc(-c3nn(C)c4ncnc(N)c34)c(F)c2)CC1c1ccc(F)cc1F` (stereo not drawn) [Example 98, 1-(4-(4-amino-1-methyl-1H-pyrazolo[3,4-d]pyrimidin-3-yl)-3-fluorophenyl)-4-(2,4-difluorophenyl)-3-ethylimidazolidin-2-one], the IC50 lay within 100 to 1000 nM. On to `CC(C)n1cc(-c2ccc(N3CC(c4cc(F)ccc4F)N(C)C3=O)cc2F)c2c(N)ncnc21` (single isomer, unassigned) [Example 87, 1-(4-(4-amino-7-isopropyl-7H-pyrrolo[2,3-d]pyrimidin-5-yl)-3-fluorophenyl)-4-(2,5-difluorophenyl)-3-methylimidazolidin-2-one], for which the IC50 was in the range of 100 to 1000 nM. In the case of `CN1C(=O)N(c2ccc(-c3cn(C)c4ncnc(N)c34)c(F)c2)CC1c1cc(F)cc(F)c1` (stereo not drawn) [Example 25, 1-(4-(4-amino-7-methyl-7H-pyrrolo[2,3-d]pyrimidin-5-yl)-3-fluorophenyl)-4-(3,5-difluorophenyl)-3-methylimidazolidin-2-one], the IC50 was below 100 nM. `CN1C(=O)N(c2ccc(-c3cn(C4CC4)c4ncnc(N)c34)c(F)c2)CC1c1cc(F)cc(F)c1` (racemic) [Example 175, 1-(4-(4-amino-7-cyclopropyl-7H-pvrrolo[2,3-d]pyrimidin-5-yl)-3-fluorophenyl)-4-(3,5-difluorophenyl)-3-methylimidazolidin-2-one]: the IC50 was below 100 nM. On to `CCN1C(=O)N(c2ccc(-c3cn(C)c4ncnc(N)c34)c(F)c2)CC1c1cc(F)cc(C(F)(F)F)c1` (single isomer, unassigned) [Example 89, 1-(4-(4-amino-7-methyl-7H-pyrrolo[2,3-d]pyrimidin-5-yl)-3-fluorophenyl)-3-ethyl-4-(3-fluoro-5-(trifluoromethyl)phenyl)imidazolidin-2-one], for which the IC50 lay within 100 to 1000 nM.
